Assays:
Test in all cases: relative viability (nuclei count vs DMSO), 5 days (fraction); higher = more cells survive
Everolimus + Foretinib = compound: CO[C@H]1C[C@@H]2CC[C@@H](C)[C@@](O)(O2)C(=O)C(=O)N2CCCC[C@H]2C(=O)O[C@H]([C@H](C)C[C@@H]2CC[C@@H](OCCO)[C@H](OC)C2)CC(=O)[C@H](C)/C=C(\C)[C@@H](O)[C@@H](OC)C(=O)[C@H](C)C[C@H](C)/C=C/C=C/C=C/1C [Everolimus] + COc1cc2c(Oc3ccc(NC(=O)C4(C(=O)Nc5ccc(F)cc5)CC4)cc3F)ccnc2cc1OCCCN1CCOCC1 [Foretinib] (partner 0.25 µM)
Summary of the method: (§1)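 Cells from lung cancer lines were seeded into 1536-well plates and, one day later, dosed by pin tool. Treatments were either a single drug or a fixed dose of an anchor drug with five library-drug doses (not always all listed) in √10 steps. After 5 days, nuclei were stained in a one-step fixation (final 0.05% Triton X-100, 1% formaldehyde, 1 ug/ml Hoechst) and counted on 4× images, and relative viability is the treated-to-vehicle nuclei ratio, as the median of duplicate plates.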

Everolimus + Navitoclax = compound: CO[C@H]1C[C@@H]2CC[C@@H](C)[C@@](O)(O2)C(=O)C(=O)N2CCCC[C@H]2C(=O)O[C@H]([C@H](C)C[C@@H]2CC[C@@H](OCCO)[C@H](OC)C2)CC(=O)[C@H](C)/C=C(\C)[C@@H](O)[C@@H](OC)C(=O)[C@H](C)C[C@H](C)/C=C/C=C/C=C/1C [Everolimus] + CC1(C)CCC(c2ccc(Cl)cc2)=C(CN2CCN(c3ccc(C(=O)NS(=O)(=O)c4ccc(N[C@H](CCN5CCOCC5)CSc5ccccc5)c(S(=O)(=O)C(F)(F)F)c4)cc3)CC2)C1 [Navitoclax] (partner 0.5 µM)
Summary of the method: as §1

Everolimus + Luminespib = compound: CO[C@H]1C[C@@H]2CC[C@@H](C)[C@@](O)(O2)C(=O)C(=O)N2CCCC[C@H]2C(=O)O[C@H]([C@H](C)C[C@@H]2CC[C@@H](OCCO)[C@H](OC)C2)CC(=O)[C@H](C)/C=C(\C)[C@@H](O)[C@@H](OC)C(=O)[C@H](C)C[C@H](C)/C=C/C=C/C=C/1C [Everolimus] + CCNC(=O)c1noc(-c2cc(C(C)C)c(O)cc2O)c1-c1ccc(CN2CCOCC2)cc1 [Luminespib] (partner 0.01 µM)
Summary of the method: as §1

Everolimus + Linsitinib = compound: CO[C@H]1C[C@@H]2CC[C@@H](C)[C@@](O)(O2)C(=O)C(=O)N2CCCC[C@H]2C(=O)O[C@H]([C@H](C)C[C@@H]2CC[C@@H](OCCO)[C@H](OC)C2)CC(=O)[C@H](C)/C=C(\C)[C@@H](O)[C@@H](OC)C(=O)[C@H](C)C[C@H](C)/C=C/C=C/C=C/1C [Everolimus] + C[C@]1(O)C[C@@H](c2nc(-c3ccc4ccc(-c5ccccc5)nc4c3)c3c(N)nccn32)C1 [Linsitinib] (partner 1 µM)
Summary of the method: as §1

Cell Line	relative viability (Everolimus + Foretinib; first compound 0.01 µM)	relative viability (Everolimus + Foretinib; first compound 0.03162 µM)	relative viability (Everolimus + Foretinib; first compound 0.1 µM)	relative viability (Everolimus + Foretinib; first compound 0.3162 µM)	relative viability (Everolimus + Foretinib; first compound 1 µM)	relative viability (Everolimus + Navitoclax; first compound 0.01 µM)	relative viability (Everolimus + Navitoclax; first compound 0.03162 µM)	relative viability (Everolimus + Navitoclax; first compound 0.1 µM)	relative viability (Everolimus + Navitoclax; first compound 0.3162 µM)	relative viability (Everolimus + Navitoclax; first compound 1 µM)	relative viability (Everolimus + Luminespib; first compound 0.01 µM)	relative viability (Everolimus + Luminespib; first compound 0.03162 µM)	relative viability (Everolimus + Luminespib; first compound 0.1 µM)	relative viability (Everolimus + Luminespib; first compound 0.3162 µM)	relative viability (Everolimus + Luminespib; first compound 1 µM)	relative viability (Everolimus + Linsitinib; first compound 0.01 µM)	relative viability (Everolimus + Linsitinib; first compound 0.03162 µM)	relative viability (Everolimus + Linsitinib; first compound 0.1 µM)	relative viability (Everolimus + Linsitinib; first compound 0.3162 µM)	relative viability (Everolimus + Linsitinib; first compound 1 µM)
NCI-H2347	0.855	0.499	0.511	0.684	0.552	0.906	0.453	0.26	0.453	0.429	0.497	0.367	0.301	0.332	0.362	0.912	0.911	0.581	0.798	0.769
NCI-H2405	0.973	0.857	0.763	0.809	0.781	0.672	0.63	0.53	0.662	0.452	0.657	0.548	0.523	0.52	0.484	0.515	0.49	0.463	0.536	0.536
NCI-H3122	0.818	0.621	0.351	0.494	0.801	1.05	0.916	0.82	0.89	0.617	0.105	0.0862	0.0973	0.113	0.0788	0.791	0.822	0.621	0.528	0.761
PC-3 [JPC-3]	1.16	1.13	0.994	0.985	0.987	0.763	0.676	0.577	0.664	0.568	0.466	0.517	0.493	0.372	0.474	0.869	0.914	0.785	0.834	0.866
PC-14	0.986	0.968	0.928	0.756	0.854	1.06	1.05	0.88	0.911	0.864	0.175	0.171	0.145	0.171	0.191	0.937	1	0.945	0.82	0.724
RERF-LC-KJ	0.686	0.694	0.578	0.539	0.559	0.778	0.571	0.47	0.579	0.488	0.895	0.834	0.807	0.848	0.646	0.86	0.679	0.609	0.531	0.571
SK-LU-1	0.41	0.438	0.449	0.432	0.469	0.529	0.48	0.494	0.568	0.475	0.183	0.147	0.174	0.164	0.168	0.501	0.66	0.552	0.614	0.631

Reference: the supplement of paper PMC10307832
